Source: patent US8097654B2, “Radiolabeled 3-[3-(benzoyl-amido)benzyloxy]aspartic acid derivative and method of producing the same” (Suntory Holdings Limited, priority 2004, dated 2012)

Biological target: EAAT2 (Homo sapiens, UniProt P43004)
Test: Inhibition of [14C]-glutamic acid uptake by EAAT2 expressed in MDCK or COS-1 cells
Assay type: cell-based
Design: expressed in transfected cells
Conditions: glutamate transporter, subtype not given
Experimental: In accordance with a known method (Shimamoto, K. et al., Mol. Pharmacol. 53, 195-201, 1998; Bioorg. Med. Chem. Lett. 10, 2407-2410, 2000), the inhibitory activity was assayed as the ability to inhibit the uptake of [^14C]-glutamic acid by human EAAT2 and EAAT3 stably expressed in MDCK (Madin-Darby canine kidney) cells or transiently expressed in COS-1 cells. The glutamate uptake activity was assayed by incubating a mixture of 1 μM of L-[^14C]-glutamic acid with a sample compound at a predetermined concentration for 12 minutes, lysing the cells and then measuring the radioactivity incorporated into the cells with a liquid scintillator. The amount of uptake was expressed in percentage by referring the amount of uptake in the absence of a test compound (i.e., the buffer alone) as 100% and referring the amount of uptake in a sodium-free solution as 0%.

Sequence of EAAT2 (P43004 whole entry): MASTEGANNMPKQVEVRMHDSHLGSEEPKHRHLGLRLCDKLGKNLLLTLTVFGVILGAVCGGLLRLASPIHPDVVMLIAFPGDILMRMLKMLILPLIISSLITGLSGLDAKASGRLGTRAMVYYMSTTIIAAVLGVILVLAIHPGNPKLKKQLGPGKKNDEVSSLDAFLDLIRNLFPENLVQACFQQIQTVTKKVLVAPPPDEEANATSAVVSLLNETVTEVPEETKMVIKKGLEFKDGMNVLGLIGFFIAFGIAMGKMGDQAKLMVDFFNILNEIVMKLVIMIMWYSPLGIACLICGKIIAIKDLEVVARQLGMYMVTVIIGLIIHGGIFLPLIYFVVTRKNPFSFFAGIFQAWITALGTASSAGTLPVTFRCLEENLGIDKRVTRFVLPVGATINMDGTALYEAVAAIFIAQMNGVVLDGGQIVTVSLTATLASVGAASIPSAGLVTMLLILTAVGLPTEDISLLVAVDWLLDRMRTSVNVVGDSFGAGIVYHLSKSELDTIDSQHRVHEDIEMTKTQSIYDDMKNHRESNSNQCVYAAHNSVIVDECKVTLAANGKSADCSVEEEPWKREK

## N[C@H](C(=O)O)[C@H](OCc1cccc(NC(=O)c2ccc(F)cc2)c1)C(=O)O [F-BzA-TBOA]
  IC50 for glutamate transporter (in words): several ten nM order
